In the oligonucleotide strings, read from the 5' end, every base follows the letter of its sugar. An asterisk marks phosphorothioate; unmarked linkages are phosphodiester. Other units and linkages are bracketed, terminal groups are in braces. A string of capitals states the bases alone. e = 2'-O-(2-methoxyethyl) (MOE); [5mC] = 5-methylcytosine; d = 2'-deoxy (DNA)
Key:
Type in all cases: in vivo, mouse
apolipoprotein B mRNA [1] = assay: ob/ob mice (Example 50): apolipoprotein B mRNA levels in liver; conditions: high fat high cholesterol diet, 50 mg/kg i.p. twice a week, six weeks
Summary of the method: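 Ob/ob mice on 60% kcal fat diet with 0.15% cholesterol received 50 mg/kg oligonucleotide i.p. twice weekly for six weeks, with saline and control oligonucleotides.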

[2] = High fat fed C57BL/6 mice, 6 week timecourse: serum cholesterol, triglyceride, lipoprotein and glucose levels; conditions: for Percent Inhibition HDL / Percent Inhibition LDL / Percent Inhibition VLDL: negative = increase; for Percent Inhibition of serum cholesterol levels: normalized to saline control; for Triglycerides: study end (control 115 mg/dL); for serum cholesterol: study end (control 240 mg/dL); for serum glucose levels: study termination (saline control 300 mg/dL)
Procedure: Male C57BL/6 mice (n=8) receiving a high fat diet (60% kcal fat) were evaluated over the course of 6 weeks for the effects of treatment with the antisense oligonucleotide, ISIS 147764. Control animals received saline treatment (50 mg/kg). A subset of animals received a daily oral dose (20 mg/kg) atorvastatin calcium (Lipitor®, Pfizer Inc.). All mice, except atorvastatin-treated animals, were dosed intraperitoneally every three days (twice a week), after fasting overnight, with 5, 25, 50 mg/kg ISIS 147764 (SEQ ID No: 109) or saline (50 mg/kg) for six weeks. Serum cholesterol and lipoproteins were analyzed at 0, 2 and 6 week interim timepoints. At study termination, animals were sacrificed 48 hours after the final injections and evaluated for levels of target mRNA levels in liver, cholesterol, lipoprotein, triglyceride, liver enzyme (AST and ALT) and serum glucose levels as well as body, liver, spleen and fat pad weights.
(§1) Male C57BL/6 mice (n=8) receiving a high fat diet (60% kcal fat) were evaluated over the course of 6 weeks for the effects of ISIS 147764 on serum cholesterol and triglyceride levels. Control animals received saline treatment (50 mg/kg). Mice were dosed intraperitoneally every three days (twice a week), after fasting overnight, with 5, 25, 50 mg/kg ISIS 147764 (SEQ ID No: 109) or saline (50 mg/kg) for six weeks.
Values in the table are expressed as percent inhibition and are normalized to the saline control.
In addition to serum cholesterol, at study termination, animals were sacrificed 48 hours after the final injections and evaluated for triglyceride levels.
as §1, with “lipoprotein (VLDL, LDL” for “serum cholesterol”, “HDL)” for “triglyceride”
Values in the table are expressed as percent inhibition and are normalized to the saline control. Negative values indicate an observed increase in lipoprotein levels.
as §1, with “glucose” for “cholesterol and triglyceride”
At study termination, animals were sacrificed 48 hours after the final injections and evaluated for serum glucose levels. […] Mice treated with atorvastatin at a daily oral dose of 20 mg/kg had serum glucose levels of 215 mg/dL.

apolipoprotein B mRNA [3] = assay: ApoE knockout mice (Example 28): target mRNA levels in liver; conditions: high fat diet, six weeks
Description: Female ApoE knockout mice ranged in age from 5 to 7 weeks and were placed on a normal diet for 2 weeks before study initiation. ApoE knockout mice were then fed ad libitum a 60% fat diet, with 0.15% added cholesterol to induce dyslipidemia and obesity. Control animals were maintained on a high-fat diet with no added cholesterol. […]
At study termination and forty eight hours after the final injections, animals were sacrificed and evaluated for target mRNA levels in liver by RT-PCR methods verified by Northern Blot analysis, glucose levels, cholesterol and lipid levels by HPLC separation methods and triglyceride and liver enzyme levels (performed by LabCorp Preclinical Services; San Diego, Calif.).
Data are normalized to saline controls.

147764 (eG*eT*e[5mC]*e[5mC]*e[5mC]*dT*dG*dA*dA*dG*dA*dT*dG*dT*d[5mC]*eA*eA*eT*eG*e[5mC]) [compound 147764]
apolipoprotein B mRNA levels (apolipoprotein B mRNA [1]): able to lower
mRNA % control ApoB (apolipoprotein B mRNA [1]; liver): 43.1 % control

GTCCCTGAAGATGTCAATGC (2'-MOE gapmer, further chemistry not given here) [ISIS 147764]
Percent Inhibition HDL ([2]; 5 mg/kg i.p., 0 weeks): 0%
Percent Inhibition LDL ([2]; 5 mg/kg i.p., 0 weeks): 0%
Percent Inhibition VLDL ([2]; 5 mg/kg i.p., 0 weeks): 0%
Percent Inhibition of serum cholesterol levels ([2]; 5 mg/kg i.p., 0 weeks): 0%
Percent Inhibition HDL ([2]; 5 mg/kg i.p., 2 weeks): 5%
Percent Inhibition LDL ([2]; 5 mg/kg i.p., 2 weeks): −30%
Percent Inhibition VLDL ([2]; 5 mg/kg i.p., 2 weeks): 25%
Percent Inhibition of serum cholesterol levels ([2]; 5 mg/kg i.p., 2 weeks): 5%
Percent Inhibition HDL ([2]; 5 mg/kg i.p., 6 weeks): 10%
Percent Inhibition LDL ([2]; 5 mg/kg i.p., 6 weeks): −10%
Percent Inhibition VLDL ([2]; 5 mg/kg i.p., 6 weeks): 10%
Percent Inhibition of serum cholesterol levels ([2]; 5 mg/kg i.p., 6 weeks): 10%
Triglycerides ([2]; 5 mg/kg): 125 mg/dL
serum cholesterol ([2]; 5 mg/kg): 225 mg/dL
serum glucose levels ([2]; 5 mg/kg): 225 mg/dL
Percent Inhibition HDL ([2]; 25 mg/kg i.p., 0 weeks): 0%
Percent Inhibition LDL ([2]; 25 mg/kg i.p., 0 weeks): 0%
Percent Inhibition VLDL ([2]; 25 mg/kg i.p., 0 weeks): 0%
Percent Inhibition of serum cholesterol levels ([2]; 25 mg/kg i.p., 0 weeks): 0%
Percent Inhibition HDL ([2]; 25 mg/kg i.p., 2 weeks): 10%
Percent Inhibition LDL ([2]; 25 mg/kg i.p., 2 weeks): 10%
Percent Inhibition VLDL ([2]; 25 mg/kg i.p., 2 weeks): 30%
Percent Inhibition of serum cholesterol levels ([2]; 25 mg/kg i.p., 2 weeks): 12%
Percent Inhibition HDL ([2]; 25 mg/kg i.p., 6 weeks): 45%
Percent Inhibition LDL ([2]; 25 mg/kg i.p., 6 weeks): 55%
Percent Inhibition VLDL ([2]; 25 mg/kg i.p., 6 weeks): −30%
Percent Inhibition of serum cholesterol levels ([2]; 25 mg/kg i.p., 6 weeks): 45%
Triglycerides ([2]; 25 mg/kg): 150 mg/dL
serum cholesterol ([2]; 25 mg/kg): 125 mg/dL
serum glucose levels ([2]; 25 mg/kg): 190 mg/dL
lowering of serum lipoproteins compared to atorvastatin ([2]; 50 mg/kg): lowering all categories of serum lipoproteins investigated to a greater extent than atorvastatin
Percent Inhibition HDL ([2]; 50 mg/kg i.p., 0 weeks): 0%
Percent Inhibition LDL ([2]; 50 mg/kg i.p., 0 weeks): 0%
Percent Inhibition VLDL ([2]; 50 mg/kg i.p., 0 weeks): 0%
Percent Inhibition of serum cholesterol levels ([2]; 50 mg/kg i.p., 0 weeks): 0%
Percent Inhibition HDL ([2]; 50 mg/kg i.p., 2 weeks): 10%
Percent Inhibition LDL ([2]; 50 mg/kg i.p., 2 weeks): 40%
Percent Inhibition VLDL ([2]; 50 mg/kg i.p., 2 weeks): 40%
Percent Inhibition of serum cholesterol levels ([2]; 50 mg/kg i.p., 2 weeks): 20%
Percent Inhibition HDL ([2]; 50 mg/kg i.p., 6 weeks): 50%
Percent Inhibition LDL ([2]; 50 mg/kg i.p., 6 weeks): 90%
Percent Inhibition VLDL ([2]; 50 mg/kg i.p., 6 weeks): 15%
Percent Inhibition of serum cholesterol levels ([2]; 50 mg/kg i.p., 6 weeks): 55%
Triglycerides ([2]; 50 mg/kg): 85 mg/dL
serum cholesterol ([2]; 50 mg/kg): 110 mg/dL
serum glucose levels ([2]; 50 mg/kg): 180 mg/dL
mRNA Percent Inhibition (apolipoprotein B mRNA [3]; 5 mg/kg i.p. every three days): 2%
mRNA Percent Inhibition (apolipoprotein B mRNA [3]; 25 mg/kg i.p. every three days): 42%
mRNA Percent Inhibition (apolipoprotein B mRNA [3]; 50 mg/kg i.p. every three days): 70%

Source: patent US7803930B2, “Antisense modulation of apolipoprotein B-expression” (Isis Pharmaceuticals, Inc., priority 2002, dated 2010)
